Laboratory results as given in article PMC6930522, “Structure-Based Pharmacophore Modeling, Virtual Screening, Molecular Docking and Biological Evaluation for Identification of Potential Poly (ADP-Ribose) Polymerase-1 (PARP-1) Inhibitors” (Molecules, 2019).
Read-outs that look alike come from different tables or passages of the source.

Assays:
PARP-1 = molecular target: T1, PARP-1 (Homo sapiens, UniProt P09874); test: In vitro PARP inhibition assay (PARP-1); assay type: biochemical; details: Table 3; PARP-1 enzyme assay, mean ± SD, three independent experiments
T1 construct: purchased Trevigan (Gaithersburg, MD, USA)
T1 sequence (P09874 whole entry): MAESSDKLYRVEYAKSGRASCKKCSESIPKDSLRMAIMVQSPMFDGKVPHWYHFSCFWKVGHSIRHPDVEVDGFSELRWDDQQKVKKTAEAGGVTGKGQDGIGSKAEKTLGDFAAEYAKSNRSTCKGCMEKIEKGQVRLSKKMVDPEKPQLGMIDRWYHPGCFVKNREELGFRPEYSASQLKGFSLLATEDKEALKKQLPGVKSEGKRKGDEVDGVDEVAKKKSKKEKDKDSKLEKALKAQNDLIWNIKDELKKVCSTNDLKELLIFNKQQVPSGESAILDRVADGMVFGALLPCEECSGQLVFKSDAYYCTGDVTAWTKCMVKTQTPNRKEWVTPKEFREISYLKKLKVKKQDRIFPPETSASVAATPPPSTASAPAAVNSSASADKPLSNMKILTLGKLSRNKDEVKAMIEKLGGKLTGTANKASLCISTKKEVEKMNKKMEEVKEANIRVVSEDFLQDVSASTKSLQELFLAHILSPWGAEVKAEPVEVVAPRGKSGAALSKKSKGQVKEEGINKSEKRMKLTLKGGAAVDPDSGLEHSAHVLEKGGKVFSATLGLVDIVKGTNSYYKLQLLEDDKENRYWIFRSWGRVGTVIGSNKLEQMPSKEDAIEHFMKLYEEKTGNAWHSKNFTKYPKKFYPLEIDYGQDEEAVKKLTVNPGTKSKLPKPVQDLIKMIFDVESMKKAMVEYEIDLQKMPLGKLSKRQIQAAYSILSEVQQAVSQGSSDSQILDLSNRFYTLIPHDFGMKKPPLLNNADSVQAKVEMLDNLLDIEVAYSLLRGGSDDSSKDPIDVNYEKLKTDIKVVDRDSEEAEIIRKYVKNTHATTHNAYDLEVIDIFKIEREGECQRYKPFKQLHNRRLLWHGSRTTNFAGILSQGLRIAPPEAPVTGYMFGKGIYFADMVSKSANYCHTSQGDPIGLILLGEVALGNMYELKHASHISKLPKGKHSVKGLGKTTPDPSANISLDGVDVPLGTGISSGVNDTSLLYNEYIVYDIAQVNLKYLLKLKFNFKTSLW
Method: (§1) Purified recombinant human PARPs from Trevigan (Gaithersburg, MD, USA) was used to determine the IC50 values of a PARP inhibitor. The PARP enzyme assay was set up on ice in a volume of 100 μL consisting of 50 mM Tris–HCl (pH 8.0), 2 mM MgCl2, 30 μg/mL of DNase activated herring sperm DNA (Sigma, MO, USA), 30 μM [^3H]nicotinamide adenine dinucleotide (67 mCi/mmol), 75 μg/mL PARP enzyme and various concentrations of the compounds to be tested. The reaction was initiated by incubating the mixture at 25 °C. After 15 min of incubation, the reaction was terminated by adding 500 μL of ice cold 20% (w/v) trichloroacetic acid. The formed precipitate was transferred onto a glass fiber filter (Packard Unifilter–GF/B) and washed three times with ethanol. After the filter is dried, the radioactivity is determined by scintillation counting.

[1] = tested on: human lung cancer A549 cells; test: MTT assay, proliferation of A549 cells; assay type: cell-based; details: 48 h, different concentrations, Figure 5
Method: A549 cells were seeded in a 96-well culture plate and allowed to grow overnight. Then, cells were exposed to different concentrations of compounds 1–4 and incubated at 37 °C for 48 h. After that, an MTT stock solution (0.5 mg/mL) was added into each well and the plate was incubated for 4 h. The 150 µL of DMSO was used for fixing the MTT-treated cells and the absorbance of each sample was recorded at 490 nm with a Microplate Spectrophotometer.

PARP-2 = molecular target: T2, PARP-2 (Homo sapiens, UniProt Q9UGN5); test: In vitro PARP inhibition assay (PARP-2); assay type: biochemical
T2 construct: purchased Trevigan (Gaithersburg, MD, USA)
T2 sequence (Q9UGN5 whole entry): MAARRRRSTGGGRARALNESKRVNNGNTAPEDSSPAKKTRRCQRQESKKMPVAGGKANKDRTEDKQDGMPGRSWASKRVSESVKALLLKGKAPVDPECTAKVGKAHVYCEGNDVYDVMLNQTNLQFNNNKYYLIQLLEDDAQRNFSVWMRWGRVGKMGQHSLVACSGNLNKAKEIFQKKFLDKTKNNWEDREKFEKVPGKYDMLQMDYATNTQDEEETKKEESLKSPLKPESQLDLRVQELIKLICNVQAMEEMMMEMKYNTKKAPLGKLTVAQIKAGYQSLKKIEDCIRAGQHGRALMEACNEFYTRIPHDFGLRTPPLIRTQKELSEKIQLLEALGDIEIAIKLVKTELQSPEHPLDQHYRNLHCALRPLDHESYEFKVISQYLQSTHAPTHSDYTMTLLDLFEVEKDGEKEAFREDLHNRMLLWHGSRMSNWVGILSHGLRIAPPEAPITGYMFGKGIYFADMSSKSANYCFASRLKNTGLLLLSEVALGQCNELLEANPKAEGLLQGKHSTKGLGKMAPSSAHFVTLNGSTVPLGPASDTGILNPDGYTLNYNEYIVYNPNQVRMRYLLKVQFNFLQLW
Method: as §1

PARP-3 = molecular target: T3, PARP-3 (Homo sapiens, UniProt Q9Y6F1); test: In vitro PARP inhibition assay (PARP-3); assay type: biochemical; details: Table 4
T3 construct: purchased Trevigan (Gaithersburg, MD, USA)
T3 sequence (Q9Y6F1 1-533): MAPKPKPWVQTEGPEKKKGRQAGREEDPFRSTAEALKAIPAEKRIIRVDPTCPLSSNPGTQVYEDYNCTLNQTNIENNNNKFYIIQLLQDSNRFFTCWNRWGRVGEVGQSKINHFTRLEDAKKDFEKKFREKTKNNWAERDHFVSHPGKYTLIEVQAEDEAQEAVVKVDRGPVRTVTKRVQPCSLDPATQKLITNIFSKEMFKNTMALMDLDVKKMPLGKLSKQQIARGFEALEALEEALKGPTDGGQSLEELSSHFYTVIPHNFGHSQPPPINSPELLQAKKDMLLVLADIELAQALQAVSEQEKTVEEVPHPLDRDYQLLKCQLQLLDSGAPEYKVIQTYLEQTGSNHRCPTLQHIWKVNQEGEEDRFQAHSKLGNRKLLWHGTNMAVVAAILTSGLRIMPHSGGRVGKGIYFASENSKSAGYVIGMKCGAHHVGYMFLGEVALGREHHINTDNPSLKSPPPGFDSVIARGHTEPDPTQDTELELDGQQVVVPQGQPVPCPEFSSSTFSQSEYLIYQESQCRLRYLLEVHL
Method: as §1

IC50 (PARP-1)	Structure (SMILES)	Inhibition of growth/proliferation of A549 cells [1]	IC50 (PARP-2)	IC50 (PARP-3)	IC50 (PARP-2; Table 4, read-out: PARP-2)	PARP-2/PARP-1 (PARP-2; selectivity ratio of IC50 values)
160 ± 13 nM	CC(=O)Nc1cccc(Cn2c(=O)[nH]c(=O)c3ccccc32)c1 [Compound 3]	–	–	–	–	–
–	NC(=O)c1cccc2c1C(=O)N(C1CCN(Cc3ccc(F)cc3)CC1)C2 [Compound 1]	stronger anti-proliferation effects than compounds 2 and 3	> 35000 nM	> 100000 nM	–	–
190 ± 26 nM	CN(C)CCNc1ccc2[nH]c(=O)c3ccccc3c2n1 [Compound 2]	–	–	–	–	–
400 ± 35 nM	Cc1nc2c(O)cccc2c(=O)[nH]1 [NU1025, reference compound]	–	–	–	–	–

Structure (SMILES)	IC50 (PARP-1)	Inhibition of growth/proliferation of A549 cells [1]	IC50 (PARP-2)	IC50 (PARP-3)	IC50 (PARP-2; Table 4, read-out: PARP-2)	PARP-2/PARP-1 (PARP-2; selectivity ratio of IC50 values)
CCc1ccc(-c2nc3cccc4c3n2CCNC4=O)cc1 [Compound 4]	65 ± 8 nM	stronger anti-proliferation effects than compounds 2 and 3	–	> 100000 nM	> 35000 nM	>1000
